Assay results published in US20250382287A1, “PHARMACEUTICALLY ACCEPTABLE SALT AND CRYSTAL FORM OF NITROGEN-CONTAINING BRIDGE HETEROCYCLIC DERIVATIVE, AND METHOD FOR PREPARING SAME” (JIANGSU HENGRUI PHARMACEUTICALS CO., LTD., priority 2022, published 2025).

Tests used:
[1] = molecular target: T1, Factor B enzyme (recombinant human complement factor B protein, as CVF:Bb complex) (Homo sapiens, UniProt P00751); conditions: biological evaluation in Application No. WO2022143845; cited from earlier work
T1 construct: host or cells: HD CHO-S cells, pcDNA3.4 vector
T1 sequence (P00751 260-764 limits assumed): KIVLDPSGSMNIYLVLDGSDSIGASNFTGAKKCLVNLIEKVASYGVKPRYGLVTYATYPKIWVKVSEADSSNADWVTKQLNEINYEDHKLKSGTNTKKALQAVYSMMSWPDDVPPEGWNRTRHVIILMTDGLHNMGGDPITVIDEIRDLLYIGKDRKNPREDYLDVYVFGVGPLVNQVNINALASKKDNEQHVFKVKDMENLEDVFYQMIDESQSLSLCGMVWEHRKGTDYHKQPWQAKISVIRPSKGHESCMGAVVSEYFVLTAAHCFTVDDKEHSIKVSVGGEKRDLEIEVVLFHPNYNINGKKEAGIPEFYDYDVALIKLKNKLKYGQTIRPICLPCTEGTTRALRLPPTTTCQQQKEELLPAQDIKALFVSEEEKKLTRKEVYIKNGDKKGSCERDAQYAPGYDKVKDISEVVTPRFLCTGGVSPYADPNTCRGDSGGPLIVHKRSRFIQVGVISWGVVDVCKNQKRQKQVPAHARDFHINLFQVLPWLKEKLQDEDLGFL
T1 sequence (Q91132 23-649 partner limits assumed): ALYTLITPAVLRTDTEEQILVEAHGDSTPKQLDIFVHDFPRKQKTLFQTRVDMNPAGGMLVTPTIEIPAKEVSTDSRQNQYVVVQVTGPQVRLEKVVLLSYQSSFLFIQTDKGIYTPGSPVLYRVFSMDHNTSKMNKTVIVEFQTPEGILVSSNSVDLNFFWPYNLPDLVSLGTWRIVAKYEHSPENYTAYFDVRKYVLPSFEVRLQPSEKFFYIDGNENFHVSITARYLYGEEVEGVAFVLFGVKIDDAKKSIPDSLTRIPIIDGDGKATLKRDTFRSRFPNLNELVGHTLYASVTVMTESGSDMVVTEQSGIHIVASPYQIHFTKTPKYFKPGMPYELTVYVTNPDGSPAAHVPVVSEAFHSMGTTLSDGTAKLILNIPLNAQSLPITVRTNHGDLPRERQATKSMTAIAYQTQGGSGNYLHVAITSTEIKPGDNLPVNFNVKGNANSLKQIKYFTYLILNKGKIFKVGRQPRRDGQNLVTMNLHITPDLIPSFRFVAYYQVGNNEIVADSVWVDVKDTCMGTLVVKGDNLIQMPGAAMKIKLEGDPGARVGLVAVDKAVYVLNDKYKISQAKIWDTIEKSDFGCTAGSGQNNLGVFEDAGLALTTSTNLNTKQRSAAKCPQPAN
T1 sequence (Q91132 733-984 partner limits assumed): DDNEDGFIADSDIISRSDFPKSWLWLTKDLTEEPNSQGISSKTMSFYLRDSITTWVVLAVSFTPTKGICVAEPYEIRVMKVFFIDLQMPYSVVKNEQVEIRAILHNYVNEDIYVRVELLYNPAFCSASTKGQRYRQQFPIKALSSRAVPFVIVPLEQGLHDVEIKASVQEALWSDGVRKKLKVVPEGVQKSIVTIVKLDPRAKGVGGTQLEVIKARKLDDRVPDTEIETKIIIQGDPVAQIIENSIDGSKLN
T1 sequence (Q91132 1264-1642 partner limits assumed): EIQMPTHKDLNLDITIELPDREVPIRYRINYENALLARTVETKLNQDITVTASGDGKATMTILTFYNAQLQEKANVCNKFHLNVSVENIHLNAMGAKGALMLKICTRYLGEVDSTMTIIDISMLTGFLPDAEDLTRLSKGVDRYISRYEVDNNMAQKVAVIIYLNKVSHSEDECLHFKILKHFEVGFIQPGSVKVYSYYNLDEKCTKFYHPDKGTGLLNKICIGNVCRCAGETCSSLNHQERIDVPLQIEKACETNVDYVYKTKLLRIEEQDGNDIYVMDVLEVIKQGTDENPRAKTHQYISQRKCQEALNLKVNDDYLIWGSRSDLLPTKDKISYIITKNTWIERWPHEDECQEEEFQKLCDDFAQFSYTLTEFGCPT

[2] = DVS (dynamic vapor sorption) hygroscopicity testing; type: physicochemical
Procedure: DVS refers to dynamic vapor sorption: Surface Measurement Systems instrinsic was adopted; the humidity started at 50%, the humidity range investigated was 0%-95%, and the humidity was increased in increments of 10%; the criterion was that each gradient mass change dM/dT is less than 0.002%, TMAX 360 min, two cycles.

[3] = Long-term/accelerated stability (sealed, 25° C./60% RH and 40° C./75% RH)
[4] = Influencing factor stability (open flasks, light, high temperature, high humidity, 30 days)
[5] = 25° C., 60% RH, sealed, 1 month
[6] = 25° C., 60% RH, sealed, 2 months
[7] = 25° C., 60% RH, sealed, 3 months
[8] = 25° C., 60% RH, sealed, 6 months
[9] = 25° C./60% RH and 40° C./75% RH, 6 months
[10] = 40° C., 75% RH, sealed, 1 month
[11] = 40° C., 75% RH, sealed, 2 months
[12] = 40° C., 75% RH, sealed, 3 months
[13] = 40° C., 75% RH, sealed, 6 months
[14] = Light exposure (4500 Lux), 5 days, open flask
[15] = Light exposure (4500 Lux), 10 days, open flask
[16] = Light exposure (4500 Lux), 30 days, open flask
[17] = light exposure (4500 Lux), 40° C. and 60° C., high humidity RH 75% and 92.5%, 30 days

In the case of `CCO[C@H]1C[C@H]2CC[C@@](c3ccc(C(=O)O)cc3)(C1)N2Cc1c(OC)cc(C)c2[nH]ccc12` [compound I, 4-((1S,3S,5R)-3-ethoxy-8-((5-methoxy-7-methyl-1H-indol-4-yl)methyl)-8-azabicyclo[3.2.1]octan-1-yl)benzoic acid], the “inhibitory effect on the enzyme activity of Factor B” value [1] is given as “relatively good inhibitory effect”.
For `CCO[C@H]1C[C@H]2CC[C@@](c3ccc(C(=O)O)cc3)(C1)N2Cc1c(OC)cc(C)c2[nH]ccc12.Cc1ccc(S(=O)(=O)O)cc1` [crystal form I of the p-toluenesulfonate, 4-((1S,3S,5R)-3-ethoxy-8-((5-methoxy-7-methyl-1H-indol-4-yl)methyl)-8-azabicyclo[3.2.1]octan-1-yl)benzoic acid-p-toluenesulfonate], the “hygroscopic weight gain under normal storage conditions” value ([2]; DVS, 25° C. and 60% RH) was “about 1.22%”, the “hygroscopic weight gain under accelerated experimental conditions” value ([2]; DVS, 70% RH) was “about 1.37%” and the “hygroscopic weight gain under extreme conditions” value ([2]; DVS, 90% RH) was “about 1.87%”. For the same compound, the “crystal form re-identification after DVS testing” value ([2]; XRPD after DVS) was “did not change”, the “Purity %” value [3, 5] was 100.0% and the Salt form [3, 5] was “No change”. For the same compound, the “Purity %” value [3, 6] was 100.0%, the Salt form [3, 6] was “No change” and the “Purity %” value [3, 7] was 100.0%. For the same compound, the Salt form [3, 7] was “No change”, the “Purity %” value [3, 8] was 100.0% and the Salt form [3, 8] was “No change”. The chemical stability [3, 9] was “relatively good”, the physical stability [3, 9] was “relatively good” and the “Purity %” value [3, 10] was 100.0%. The Salt form [3, 10] was “No change”, the “Purity %” value [3, 11] was 99.8% and the Salt form [3, 11] was “No change”. The “Purity %” value [3, 12] was 99.8%, the Salt form [3, 12] was “No change” and the “Purity %” value [3, 13] was 99.7%. The Salt form [3, 13] was “No change”, the “Purity %” value ([3]; Initial) was 100.0% and the Color and state ([4]; 40° C., 5 days, open flask) was “White solid”. For the same compound, the Purity % ([4]; 40° C., 5 days, open flask) was 99.8%, the Salt form ([4]; 40° C., 5 days, open flask) was “No change” and the Color and state ([4]; 40° C., 10 days, open flask) was “White solid”. The Purity % ([4]; 40° C., 10 days, open flask) was 99.7%, the Salt form ([4]; 40° C., 10 days, open flask) was “No change” and the Color and state ([4]; 40° C., 30 days, open flask) was “White solid”. The Purity % ([4]; 40° C., 30 days, open flask) was 99.5%, the Salt form ([4]; 40° C., 30 days, open flask) was “No change” and the Color and state ([4]; 60° C., 5 days, open flask) was “White solid”. The Purity % ([4]; 60° C., 5 days, open flask) was 99.8%, the Salt form ([4]; 60° C., 5 days, open flask) was “No change” and the Color and state ([4]; 60° C., 10 days, open flask) was “White solid”. The Purity % ([4]; 60° C., 10 days, open flask) was 99.8%, the Salt form ([4]; 60° C., 10 days, open flask) was “No change” and the Color and state ([4]; 60° C., 30 days, open flask) was “White solid”. For the same compound, the Purity % ([4]; 60° C., 30 days, open flask) was 99.7%, the Salt form ([4]; 60° C., 30 days, open flask) was “No change” and the Color and state ([4]; 75% RH, 5 days, open flask) was “White solid”. For the same compound, the Purity % ([4]; 75% RH, 5 days, open flask) was 99.9%, the Salt form ([4]; 75% RH, 5 days, open flask) was “No change” and the Color and state ([4]; 75% RH, 10 days, open flask) was “White solid”. The Purity % ([4]; 75% RH, 10 days, open flask) was 99.9%, the Salt form ([4]; 75% RH, 10 days, open flask) was “No change” and the Color and state ([4]; 75% RH, 30 days, open flask) was “White solid”. The Purity % ([4]; 75% RH, 30 days, open flask) was 99.9%, the Salt form ([4]; 75% RH, 30 days, open flask) was “No change” and the Color and state ([4]; 92.5% RH, 5 days, open flask) was “White solid”. For the same compound, the Purity % ([4]; 92.5% RH, 5 days, open flask) was 100.0%, the Salt form ([4]; 92.5% RH, 5 days, open flask) was “No change” and the Color and state ([4]; 92.5% RH, 10 days, open flask) was “White solid”. The Purity % ([4]; 92.5% RH, 10 days, open flask) was 100.0%, the Salt form ([4]; 92.5% RH, 10 days, open flask) was “No change” and the Color and state ([4]; 92.5% RH, 30 days, open flask) was “White solid”. For the same compound, the Purity % ([4]; 92.5% RH, 30 days, open flask) was 99.9%, the Salt form ([4]; 92.5% RH, 30 days, open flask) was “No change” and the Color and state ([4]; Initial, 0 days) was “White solid”. For the same compound, the Purity % ([4]; Initial, 0 days) was 100.0%, the Color and state [4, 14] was “White solid” and the Purity % [4, 14] was 99.9%. The Salt form [4, 14] was “No change”, the Color and state [4, 15] was “White solid” and the Purity % [4, 15] was 99.9%. For the same compound, the Salt form [4, 15] was “No change”, the Color and state [4, 16] was “White solid” and the Purity % [4, 16] was 99.7%. For the same compound, the Salt form [4, 16] was “No change”, the chemical stability [4, 17] was “good” and the physical stability [4, 17] was “good”.
